Experimental data: ChEMBL document CHEMBL2396534, “Long-chain triazolyl acids as inhibitors of osteoclastogenesis” (2013)
The source made the active and inactive calls. The calls are words filed in the database; no cut-off is given here.

Tests used:
[1] = test system: Bone marrow cell; experiment: Inhibition of osteoclastogenesis in CD1 mouse bone marrow cells at 37 uM added on day 2 and day 4 measured on day 7 by TRAP assay relative to control; format: functional
[2] = test system: Bone marrow cell; experiment: Inhibition of osteoclastogenesis in CD1 mouse bone marrow cells at 0.1 to 10 ug/ml added on day 2 and day 4 measured on day 7 by TRAP assay; format: functional, cell-based
[3] = test system: Bone marrow cell; experiment: Inhibition of osteoclastogenesis in CD1 mouse bone marrow cells at 0.01 ug/ml added on day 2 and day 4 measured on day 7 by TRAP assay relative to control; format: functional
[4] = test system: Bone marrow cell; experiment: Inhibition of osteoclastogenesis in CD1 mouse bone marrow cells at 5 ug/ml added on day 2 and day 4 measured on day 7 by TRAP assay relative to GW9508; format: functional, cell-based
[5] = test system: Bone marrow cell; experiment: Inhibition of osteoclastogenesis in CD1 mouse bone marrow cells at 72 uM added on day 2 and day 4 measured on day 7 by TRAP assay relative to control; format: functional

SMILES	inhibition at 37 µM [1] [%]	inhibition [2]	inhibition at 0.01 µg/mL [3] [%]	inhibition [4]	inhibition at 72 µM [5] [%]
CCCCCCCCCCCn1cc(CC(=O)O)nn1	38.8				
CCCCCOCCCCCCCCCC(=O)O	100	inactive			
CCCCCn1cc(CCCCCCCC(=O)O)nn1	33.8				
CCCCCCCCCCC#CCCCCCC(=O)O [OSTEOPROTEGERIN]			32.6		
CCCCCCCCCn1cc(CCCC(=O)O)nn1	22.2	Active			
CCn1cc(CCCCCCCCCCC(=O)O)nn1	16.9	Dose-dependent effect		Active	
CCCCCCCCCCCCCOCC(=O)O	100				
COCCOCCOCCCCCCCC(=O)O	100				
CCCCCCCCCCn1cc(CCC(=O)O)nn1	26.7	Active			
CCCCCCCCCCCCCCCC(=O)O [PALMITIC ACID]	73.8	Active		Active	
CCCCCCOCCCCCCCCC(=O)O	100	inactive			
CCCCCCCn1cc(CCCCCC(=O)O)nn1	21.5	Dose-dependent effect		Active	
CCCCCCCCCCOCCCCC(=O)O	65.4	Dose-dependent effect			
CCCCCCCCCCCCOCCC(=O)O	80.8	Dose-dependent effect			
O=C(O)CCc1ccc(NCc2cccc(Oc3ccccc3)c2)cc1 [GW9508]		Dose-dependent effect			28.2
CCCCCCCCCOCCCCCC(=O)O	100	inactive			
CCCOCCCCCCCCCCCC(=O)O	73.2	Dose-dependent effect			
